In assay [1] the target is Neuraminidase (NA) of A/Taiwan/1/2013(H7N9) NA-WT (Influenza A virus, UniProt A0A024E3Q2). It is filed as biochemical. The conditions noted are these: read-out: IC50, nM ± SD.
The target in assay [2] is Neuraminidase (NA) of A/Washington/01/2007, NA-WT (Influenza A virus, UniProt A7UPN3). The assay is classed as biochemical. Conditions: read-out: IC50, nM ± SD.

In general, IC50 refers to the concentration needed to halve the response being measured.

`CCC(CC)[C@H](NC(C)=O)[C@@H]1[C@H](O)[C@@H](C(=O)O)C[C@H]1N=C(N)N` [Peramivir, peramivir]: the IC50 was 0.08 ± 0.02 nM in assay [1] and 0.23 ± 0.03 nM in assay [2].

The record behind these values is PMC6943751 (The Journal of infectious diseases, 2014).
